Data taken from patent US9422231B2, “Method for inhibiting Trypanosoma cruzi” (HOWARD UNIVERSITY, priority 2011, dated 2016).
Values joined by “and” are separate entries in the source; they are usually repeats but may differ in a detail not shown here. Equal entries are not always repeated. Where two headings read alike, the source gives them in different places.

Tests used:
T. cruzi epimastigotes = settings: Ramos et al., 2009; cited from earlier work
[1] = test system: Trypanosoma cruzi epimastigotes (Tulahuen CL98 strain); experiment: Antitrypanosomal activity against Trypanosoma cruzi epimastigotes (parasite count); assay type: cell-based; settings: for IC50: T. cruzi epimastigotes, 48 h, mean ± S.E. of three experiments, read-out: Antitrypanocidal activity IC50; for Selectivity index greater/better than nifurtimox: in vitro selectivity index relative to nifurtimox; for Selectivity Index (Cytotoxicity/Activity): ratio of IC50 for fibroblast cells/IC50 for parasites
Experimental: (§1) The antitrypanosomal activity against Trypanosoma cruzi was assayed. Trypanosoma cruzi epimastigotes (Tulahuen CL98 strain) were cultured in liver infusion trypose (LIT) medium supplemented with 10% fetal bovine serum (FBS) at 28° C., with an inoculum of 1×10^5 cells/ml. […] All assays were carried out in triplicate. […] The data were subjected to statistical analysis. All experiments were done in triplicate, the means and standard errors (S.E.) were determined. Data were analyzed by one way ANOVA and Tukey's multiple comparison test using GraphPad PRISM software version 5.00. P<0.05 was considered significant.

[2] = test system: Balb/C 3T3 mouse fibroblasts (clone A31); experiment: MTT cytotoxicity assay on Balb/C 3T3 mouse fibroblasts; assay type: cell-based; settings: for Cytotoxicity compared with nifurtimox: Balb/C 3T3 mouse fibroblast cell line, FIG. 4; for IC50: 48 h
Experimental: (§2) A cytotoxicity assay was performed with representive analogs IMNDQ1 through IMNDQ11. […] MTT is a yellow tetrazolium salt that is reduced to purple formazan crystals by metabolically active cells. Cells (2.2×10^4 cells/well) were seeded in 96-well plate in Improved Minimum Essential Medium (IMEM). […] After 48 h incubation at 37° C. in the presence 5% CO2, the medium was aspirated and the cells washed twice to remove traces of chemical compounds. IMEM without phenol containing 10% (v/v) of 3 mg/ml MTT were added to each well. The plates were incubated for 4 h at 37° C. followed by aspiration. The plates were dried for 1 h in a 37° C. incubator. 100 μl of 0.04 N HCl in isopropanol were added to each well and incubated at room temperature (27° C.) in the dark for 2 h to dissolve the formazan crystals. The absorbance was measured spectrophotometrically at 570 nm in a plate reader. The concentration that reduces cell viability by 50% (IC50) was calculated for each compound. The toxicity for mammalian cells and the activity against T. cruzi were compared by calculating the selectivity index (SI), the ratio of IC50 for fibroblast cells/IC50 for parasites. The data were subjected to statistical analysis. All experiments were done in triplicate, the means and standard errors (S.E.) were determined. Data were analyzed by one way ANOVA and Tukey's multiple comparison test using GraphPad PRISM software version 5.00. P<0.05 was considered significant.

[3] = target: purified Trypanosoma cruzi tublin (Trypanosoma cruzi, UniProt P08562+Q27352); experiment: Tubulin assembly assay; assay type: biochemical; settings: purified T. cruzi tubulin 1.2 mg/ml, absorbance at 405 nm, 30° C.; read-out: Tubulin polymerization Inhibition IC50
Experimental: Tubulin assembly assays were conducted to assess tubulin polymerization inhibition. The assays were conducted in a 96-well microplate. Assembly reactions were conducted in a buffer containing 0.1 M PIPES (pH 6.9), 1 mM EGTA, 5 mM Mgcl, 1.2 mg/ml purified Trypanosoma cruzi tublin, at concentrations (0.6-40 μM) of the imido-substituted 1,4-naphthoquinone (IMDNQ 1-IMDNQ 11). Components of the reaction mixtures were added to the microplate and assembly was initiated by the addition of 1 mM GTP. The assembly reactions were assayed photometrically by measuring the absorbance at 405 nm using a microplate reader at 30° C.

[4] = MTT cytotoxicity assay on Balb/C 3T3 mouse fibroblasts; assay type: cell-based; settings: mouse, Cytotoxicity IC50
Experimental: as §2

[5] = Antitrypanosomal activity against Trypanosoma cruzi epimastigotes (parasite count); assay type: cell-based; settings: mouse (fibroblasts) / Trypanosoma cruzi (parasites); ratio of IC50 for fibroblast cells/IC50 for parasites; read-out: Selectivity Index (Cytotoxicity/Activity)
Experimental: as §1

[6] = Balb/C 3T3 mouse fibroblasts, MTT, mean ± S.E. of three experiments, read-out: Cytotoxicity IC50

| Structure (SMILES) | melting point [°C] | IC50 [1] | Selectivity Index (Cytotoxicity/Activity) [1] | also measured |
| --- | --- | --- | --- | --- |
| O=C1C(c2ccccc2)=C(c2ccccc2)C(=O)c2ccccc21 [2,3-diphenyl-1,4-naphthoquinone] |  |  |  | LD50 (T. cruzi epimastigotes): 2.5 µM |
| O=C1C(Cl)=C(N(C(=O)c2ccccc2)C(=O)c2ccccc2)C(=O)c2ccccc21 [Example 20, 2-Dibenzoylamino-3-chloro-1,4-naphthoquinone] | 294 to 297 |  |  |  |
| O=C1C(Br)=C(N(C(=O)c2ccccc2)C(=O)c2ccccc2)C(=O)c2ccccc21 [Example 21, 2-Dibenzoylamino-3-bromo-1,4-naphthoquinone] | 234 to 238 |  |  |  |
| O=C1C(Cl)=C(N2C(=O)CCC2=O)C(=O)c2ccccc21 [IMDNQ1, 2-chloro-3-(N-succinimidyl)-1,4-naphthoquinone] |  | 2.77 µM | 60.25 and 60.25 ± 2.79 | Selectivity index greater/better than nifurtimox [1]: at least 300%; Cytotoxicity compared with nifurtimox [2]: far less cytotoxic than nifurtimox; IC50 [2, 6]: > 100 µM and 166 µM; IC50 [3]: 6 µM |
| O=C1C(Cl)=C(N2C(=O)c3ccccc3C2=O)C(=O)c2ccccc21 [IMDNQ2] |  | 4.89 µM and 4.83 µM | 53.97 and 53.97 ± 5.95 | Selectivity index greater/better than nifurtimox [1]: at least 300%; Cytotoxicity compared with nifurtimox [2]: far less cytotoxic than nifurtimox; IC50 [2, 6]: 253.7 ± 1.87 µM; IC50 [3]: 12 µM |
| CCCC(=O)N(C(=O)CCC)C1=C(Cl)C(=O)c2ccccc2C1=O [IMDNQ3] |  | 0.7 µM | 31.83 and 31.83 ± 3.17 | IC50 [2, 6]: 21.7 µM; IC50 [3]: 3.2 µM |
| O=C1C(Cl)=C(N2C(=O)COCC2=O)C(=O)c2ccccc21 [IMDNQ4] |  | 4.93 ± 0.64 µM | 7.43 ± 0.97 | IC50 [2, 6]: 35.5 ± 1.76 µM |
| O=C1C(Cl)=C(N(C(=O)c2cccc(Cl)c2)C(=O)c2cccc(Cl)c2)C(=O)c2ccccc21 [IMDNQ10, 3-Chloro-N-(3-chlorobenzoyl)-N-(3-chloro-1,4-dioxo-1,4-dihydronaphthalen-2-yl)-benzamide] | 258 to 260 |  |  | IC50 ([1]; Trypanosoma cruzi, TULAHUEN): 2.23 µM; Selectivity index, times better than nifurtimox ([1]; calculated selectivity index relative to nifurtimox): about 25 times; Selectivity index greater/better than nifurtimox [1]: at least 300%; selectivity ratio at 48 h [5]: 275; IC50 ([2]; mouse): 611 ± 10.3 µM; IC50 [3]: 8 µM |
| O=C1C(Cl)=C(N(C(=O)CCl)C(=O)CCl)C(=O)c2ccccc21 [IMDNQ11] |  | 6.1 ± 0.38 µM | 3.20 ± 0.44 | IC50 [2, 6]: 19.7 ± 3.71 µM; IC50 [3]: > 40 µM |
| CC1CS(=O)(=O)CCN1/N=C/c1ccc([N+](=O)[O-])o1 (stereo not shown) [Nifurtimox, reference compound] |  | 10.7 µM |  |  |

Now from value to molecule, other results behind:

| melting point [°C] | Structure (SMILES) | IC50 [1] | Selectivity Index (Cytotoxicity/Activity) [1] | also measured |
| --- | --- | --- | --- | --- |
| 204 to 206 | O=C1C(Br)=C(N(C(=O)c2cccc(Cl)c2)C(=O)c2cccc(Cl)c2)C(=O)c2ccccc21 [Example 22, 2-bis-(3-chlorobenzoyl)amino-3-bromo-1,4-naphthoquinone] |  |  |  |
| 266 to 269 | O=C1C(Br)=C(N(C(=O)c2ccc(Cl)cc2)C(=O)c2ccc(Cl)cc2)C(=O)c2ccccc21 [Example 23, 2-bis-(4-chlorobenzoyl)amino-3-bromo-1,4-naphthoquinone] |  |  |  |
| 257 to 260 | CC(C)(C)c1ccc(C(=O)N(C(=O)c2ccc(C(C)(C)C)cc2)C2=C(Cl)C(=O)c3ccccc3C2=O)cc1 [Example 24, 2-bis-(4-tert-butylbenzoyl)amino-3-chloro-1,4-naphthoquinone] |  |  |  |
| 283 to 287 | COc1ccc(C(=O)N(C(=O)c2ccc(OC)cc2)C2=C(Cl)C(=O)c3ccccc3C2=O)cc1 [Example 28, 2-bis-(4-methoxybenzoyl)amino-3-chloro-1,4-naphthoquinone] |  |  |  |
| 170 to 172 | O=C1C(Br)=C(N(C(=O)c2ccc(F)cc2)C(=O)c2ccc(F)cc2)C(=O)c2ccccc21 [IMDNQ5, N-(3-Bromo-1,4-dioxo-1,4-dihydronaphthalen-2-yl)-4-fluoro-N-(4-fluorobenzoyl)-benzamide] | 2.27 ± 0.15 µM | 5.70 ± 0.06 | IC50 at 48 h [4]: 12.8 µM |
| 232 to 234 | O=C1C(Br)=C(N(C(=O)c2ccccc2Cl)C(=O)c2ccccc2Cl)C(=O)c2ccccc21 [IMDNQ6, N-(3-Bromo-1,4-dioxo-1,4-dihydronaphthalen-2-yl)-2-chloro-N-(2-chlorobenzoyl)-benzamide] |  | 9.43 ± 0.94 | IC50 ([1]; Trypanosoma cruzi, TULAHUEN): 1.51 µM; IC50 at 48 h [4]: 14.2 µM |
| 212 to 213 | O=C1C(Cl)=C(N(C(=O)c2ccc(Cl)cc2)C(=O)c2ccc(Cl)cc2)C(=O)c2ccccc21 [IMDNQ7, 4-Chloro-N-(4-chlorobenzoyl)-N-(3-chloro-1,4-dioxo-1,4-dihydronaphthalen-2-yl)-benzamide] |  | 14.23 ± 1.62 | IC50 ([1]; Trypanosoma cruzi, TULAHUEN): 1.27 ± 0.15 µM; IC50 ([2]; mouse): 17.8 ± 2.21 µM |
| 217 to 218 | O=C1C(Cl)=C(N(C(=O)c2ccccc2Cl)C(=O)c2ccccc2Cl)C(=O)c2ccccc21 [IMDNQ8, 2-Chloro-N-(2-chlorobenzoyl)-N-(3-chloro-1,4-dioxo-1,4-dihydronaphthalen-2-yl)-benzamide] | 2.67 ± 0.33 µM | 10.17 ± 0.97 | IC50 at 48 h [4]: 26.5 µM |
| 284 to 286 | O=C1C(Cl)=C(N(C(=O)c2ccc(F)cc2)C(=O)c2ccc(F)cc2)C(=O)c2ccccc21 [IMDNQ9, N-(3-Chloro-1,4-dioxo-1,4-dihydronaphthalen-2-yl)-4-fluoro-N-(4-fluorobenzoyl)-benzamide] | 4.07 ± 0.23 µM | 5.43 ± 0.69 | IC50 at 48 h [4]: 21.8 µM |
